Tests used:
Experiment in all cases: relative viability (nuclei count vs DMSO), 5 days (fraction); higher = more cells survive
[1] = compound: CCc1cnn2c(NCc3ccc[n+]([O-])c3)cc(N3CCCC[C@H]3CCO)nc12 [Dinaciclib] + Cc1cc(Nc2cc(N3CCN(C)CC3)nc(Sc3ccc(NC(=O)C4CC4)cc3)n2)n[nH]1 [Tozasertib] (partner 0.1 µM)
Method in brief: (§1)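 Each reported value is a median over duplicate plates. It expresses relative viability: treated-well nuclei count divided by vehicle-well nuclei count. Lung cancer cell lines in 1536-well plates were dosed by pin tool a day after seeding, alone with one drug or with a fixed anchor-drug dose plus five library-drug doses (not always all listed) in √10 steps, and nuclei were counted after 5 days.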

[2] = compound: CCc1cnn2c(NCc3ccc[n+]([O-])c3)cc(N3CCCC[C@H]3CCO)nc12 [Dinaciclib] + CCNC(=O)c1noc(-c2cc(C(C)C)c(O)cc2O)c1-c1ccc(CN2CCOCC2)cc1 [Luminespib] (partner 0.01 µM)
Method in brief: as §1

[3] = compound: CCc1cnn2c(NCc3ccc[n+]([O-])c3)cc(N3CCCC[C@H]3CCO)nc12 [Dinaciclib] + N=C(N)NC(=N)NCCc1ccccc1 [Phenformin] (partner 250 µM)
Method in brief: as §1

[4] = compound: CCc1cnn2c(NCc3ccc[n+]([O-])c3)cc(N3CCCC[C@H]3CCO)nc12 [Dinaciclib] + COc1cccc2cc(-c3nc([C@H]4CC[C@H](C(=O)O)CC4)n4ncnc(N)c34)[nH]c12 [OSI-027] (partner 0.5 µM)
Method in brief: as §1

[5] = compound: CCc1cnn2c(NCc3ccc[n+]([O-])c3)cc(N3CCCC[C@H]3CCO)nc12 [Dinaciclib] + COc1cc2c(Oc3ccc(NC(=O)C4(C(=O)Nc5ccc(F)cc5)CC4)cc3F)ccnc2cc1OCCCN1CCOCC1 [Foretinib] (partner 0.25 µM)
Method in brief: as §1

[6] = compound: CCc1cnn2c(NCc3ccc[n+]([O-])c3)cc(N3CCCC[C@H]3CCO)nc12 [Dinaciclib] + Cc1nc(Nc2ncc(C(=O)Nc3c(C)cccc3Cl)s2)cc(N2CCN(CCO)CC2)n1 [Dasatinib] (partner 0.075 µM)
Method in brief: as §1

[7] = compound: CCc1cnn2c(NCc3ccc[n+]([O-])c3)cc(N3CCCC[C@H]3CCO)nc12 [Dinaciclib]
Method in brief: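 Nuclei counted with MetaXpress define viability as the ratio of treated to vehicle wells, given as a median across plates. The lung cancer cell lines were in 1536-well plates, pinned with five √10-spaced library-drug doses and imaged at 4× after 5 days and Hoechst staining. Plates passed with control CV below 25% and at least one doubling.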

[8] = compound: CCc1cnn2c(NCc3ccc[n+]([O-])c3)cc(N3CCCC[C@H]3CCO)nc12 [Dinaciclib] + O=C(c1cc(Cc2n[nH]c(=O)c3ccccc23)ccc1F)N1CCN(C(=O)C2CC2)CC1 [Olaparib] (partner 8 µM)
Method in brief: as §1

[9] = compound: CCc1cnn2c(NCc3ccc[n+]([O-])c3)cc(N3CCCC[C@H]3CCO)nc12 [Dinaciclib] + Nc1ncn([C@H]2C[C@H](O)[C@@H](CO)O2)c(=O)n1 [Decitabine] (partner 2 µM)
Method in brief: as §1

[10] = compound: CCc1cnn2c(NCc3ccc[n+]([O-])c3)cc(N3CCCC[C@H]3CCO)nc12 [Dinaciclib] + Nc1nc2[nH]cc(CCc3ccc(C(=O)N[C@@H](CCC(=O)O)C(=O)O)cc3)c2c(=O)[nH]1 [Pemetrexed] (partner 0.2 µM)
Method in brief: as §1

[11] = compound: CCc1cnn2c(NCc3ccc[n+]([O-])c3)cc(N3CCCC[C@H]3CCO)nc12 [Dinaciclib] + CC(=O)c1c(C)c2cnc(Nc3ccc(N4CCNCC4)cn3)nc2n(C2CCCC2)c1=O [Palbociclib] (partner 0.5 µM)
Method in brief: as §1

[12] = compound: CCc1cnn2c(NCc3ccc[n+]([O-])c3)cc(N3CCCC[C@H]3CCO)nc12 [Dinaciclib] + O=C(CCCCCCC(=O)Nc1ccccc1)NO [Vorinostat] (partner 1 µM)
Method in brief: as §1

[13] = compound: CCc1cnn2c(NCc3ccc[n+]([O-])c3)cc(N3CCCC[C@H]3CCO)nc12 [Dinaciclib] + NC(=O)Nc1cc(-c2cccc(F)c2)sc1C(=O)N[C@H]1CCCNC1 [AZD7762] (partner 0.2 µM)
Method in brief: as §1

[14] = compound: CCc1cnn2c(NCc3ccc[n+]([O-])c3)cc(N3CCCC[C@H]3CCO)nc12 [Dinaciclib] + CC(=O)Nc1cccc(-n2c(=O)n(C3CC3)c(=O)c3c(Nc4ccc(I)cc4F)n(C)c(=O)c(C)c32)c1 [Trametinib] (partner 0.02 µM)
Method in brief: as §1

## NCI-H1623
[1]; first compound 0.009487 µM
  relative viability: 0.437
[1]; first compound 0.03 µM
  relative viability: 0.249
[1]; first compound 0.09487 µM
  relative viability: 0.207
[1]; first compound 0.3 µM
  relative viability: 0.193
[2]; first compound 0.009487 µM
  relative viability: 0.428
[2]; first compound 0.03 µM
  relative viability: 0.262
[2]; first compound 0.09487 µM
  relative viability: 0.132
[2]; first compound 0.3 µM
  relative viability: 0.144
[3]; first compound 0.009487 µM
  relative viability: 0.609
[3]; first compound 0.03 µM
  relative viability: 0.259
[3]; first compound 0.09487 µM
  relative viability: 0.213
[3]; first compound 0.3 µM
  relative viability: 0.225
[4]; first compound 0.009487 µM
  relative viability: 0.397
[4]; first compound 0.03 µM
  relative viability: 0.236
[4]; first compound 0.09487 µM
  relative viability: 0.231
[4]; first compound 0.3 µM
  relative viability: 0.2
[5]; first compound 0.009487 µM
  relative viability: 0.831
[5]; first compound 0.03 µM
  relative viability: 0.273
[5]; first compound 0.09487 µM
  relative viability: 0.235
[5]; first compound 0.3 µM
  relative viability: 0.234
[6]; first compound 0.009487 µM
  relative viability: 0.518
[6]; first compound 0.03 µM
  relative viability: 0.36
[6]; first compound 0.09487 µM
  relative viability: 0.207
[6]; first compound 0.3 µM
  relative viability: 0.231
[7]; 0.009487 µM
  relative viability: 1.02
[7]; 0.03 µM
  relative viability: 0.332
[7]; 0.09487 µM
  relative viability: 0.26
[7]; 0.3 µM
  relative viability: 0.196

## NCI-H1648
[1]; first compound 0.009487 µM
  relative viability: 0.503
[1]; first compound 0.03 µM
  relative viability: 0.274
[1]; first compound 0.09487 µM
  relative viability: 0.166
[1]; first compound 0.3 µM
  relative viability: 0.207
[8]; first compound 0.009487 µM
  relative viability: 0.521
[8]; first compound 0.03 µM
  relative viability: 0.387
[8]; first compound 0.09487 µM
  relative viability: 0.234
[8]; first compound 0.3 µM
  relative viability: 0.219
[9]; first compound 0.009487 µM
  relative viability: 0.468
[9]; first compound 0.03 µM
  relative viability: 0.218
[9]; first compound 0.09487 µM
  relative viability: 0.231
[9]; first compound 0.3 µM
  relative viability: 0.217
[10]; first compound 0.009487 µM
  relative viability: 0.644
[10]; first compound 0.03 µM
  relative viability: 0.677
[10]; first compound 0.09487 µM
  relative viability: 0.25
[10]; first compound 0.3 µM
  relative viability: 0.199
[11]; first compound 0.009487 µM
  relative viability: 0.227
[11]; first compound 0.03 µM
  relative viability: 0.223
[11]; first compound 0.09487 µM
  relative viability: 0.265
[11]; first compound 0.3 µM
  relative viability: 0.224
[4]; first compound 0.009487 µM
  relative viability: 0.263
[4]; first compound 0.03 µM
  relative viability: 0.259
[4]; first compound 0.09487 µM
  relative viability: 0.265
[4]; first compound 0.3 µM
  relative viability: 0.212
[12]; first compound 0.009487 µM
  relative viability: 0.275
[12]; first compound 0.03 µM
  relative viability: 0.434
[12]; first compound 0.09487 µM
  relative viability: 0.294
[12]; first compound 0.3 µM
  relative viability: 0.262
[13]; first compound 0.009487 µM
  relative viability: 0.85
[13]; first compound 0.03 µM
  relative viability: 0.577
[13]; first compound 0.09487 µM
  relative viability: 0.266
[13]; first compound 0.3 µM
  relative viability: 0.24
[14]; first compound 0.009487 µM
  relative viability: 0.49
[14]; first compound 0.03 µM
  relative viability: 0.346
[14]; first compound 0.09487 µM
  relative viability: 0.241
[14]; first compound 0.3 µM
  relative viability: 0.264
[7]; 0.009487 µM
  relative viability: 0.788
[7]; 0.03 µM
  relative viability: 0.301
[7]; 0.09487 µM
  relative viability: 0.247
[7]; 0.3 µM
  relative viability: 0.29

## NCI-H2342
[1]; first compound 0.009487 µM
  relative viability: 0.491
[1]; first compound 0.03 µM
  relative viability: 0.468
[1]; first compound 0.09487 µM
  relative viability: 0.231
[1]; first compound 0.3 µM
  relative viability: 0.203
[8]; first compound 0.009487 µM
  relative viability: 0.391
[8]; first compound 0.03 µM
  relative viability: 0.306
[8]; first compound 0.09487 µM
  relative viability: 0.176
[8]; first compound 0.3 µM
  relative viability: 0.192
[2]; first compound 0.009487 µM
  relative viability: 0.715
[2]; first compound 0.03 µM
  relative viability: 0.511
[2]; first compound 0.09487 µM
  relative viability: 0.27
[2]; first compound 0.3 µM
  relative viability: 0.255
[9]; first compound 0.009487 µM
  relative viability: 0.78
[9]; first compound 0.03 µM
  relative viability: 0.583
[9]; first compound 0.09487 µM
  relative viability: 0.269
[9]; first compound 0.3 µM
  relative viability: 0.284
[3]; first compound 0.009487 µM
  relative viability: 0.737
[3]; first compound 0.03 µM
  relative viability: 0.543
[3]; first compound 0.09487 µM
  relative viability: 0.288
[3]; first compound 0.3 µM
  relative viability: 0.303
[10]; first compound 0.009487 µM
  relative viability: 0.851
[10]; first compound 0.03 µM
  relative viability: 0.56
[10]; first compound 0.09487 µM
  relative viability: 0.3
[10]; first compound 0.3 µM
  relative viability: 0.274
[11]; first compound 0.009487 µM
  relative viability: 0.475
[11]; first compound 0.03 µM
  relative viability: 0.575
[11]; first compound 0.09487 µM
  relative viability: 0.447
[11]; first compound 0.3 µM
  relative viability: 0.271
[4]; first compound 0.009487 µM
  relative viability: 0.559
[4]; first compound 0.03 µM
  relative viability: 0.532
[4]; first compound 0.09487 µM
  relative viability: 0.32
[4]; first compound 0.3 µM
  relative viability: 0.315
[12]; first compound 0.009487 µM
  relative viability: 0.75
[12]; first compound 0.03 µM
  relative viability: 0.685
[12]; first compound 0.09487 µM
  relative viability: 0.703
[12]; first compound 0.3 µM
  relative viability: 0.323
[13]; first compound 0.009487 µM
  relative viability: 0.627
[13]; first compound 0.03 µM
  relative viability: 0.572
[13]; first compound 0.09487 µM
  relative viability: 0.206
[13]; first compound 0.3 µM
  relative viability: 0.225
[5]; first compound 0.009487 µM
  relative viability: 0.998
[5]; first compound 0.03 µM
  relative viability: 0.739
[5]; first compound 0.09487 µM
  relative viability: 0.273
[5]; first compound 0.3 µM
  relative viability: 0.274
[6]; first compound 0.009487 µM
  relative viability: 0.333
[6]; first compound 0.03 µM
  relative viability: 0.289
[6]; first compound 0.09487 µM
  relative viability: 0.248
[6]; first compound 0.3 µM
  relative viability: 0.23
[14]; first compound 0.009487 µM
  relative viability: 0.82
[14]; first compound 0.03 µM
  relative viability: 0.847
[14]; first compound 0.09487 µM
  relative viability: 0.343
[14]; first compound 0.3 µM
  relative viability: 0.31
[7]; 0.009487 µM
  relative viability: 1.11
[7]; 0.03 µM
  relative viability: 0.696
[7]; 0.09487 µM
  relative viability: 0.368
[7]; 0.3 µM
  relative viability: 0.301
